Key:
Experiment in all cases: relative viability (nuclei count vs DMSO), 5 days (fraction); higher = more cells survive
IPA-3 + OSI-027 = compound: C1=CC=C2C(=C1)C=CC(=C2SSC3=C(C=CC4=CC=CC=C43)O)O [IPA-3] + COc1cccc2cc(-c3nc([C@H]4CC[C@H](C(=O)O)CC4)n4ncnc(N)c34)[nH]c12 [OSI-027] (partner 0.5 µM)
In short: (§1)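 Lung cancer cell lines were seeded in 1536-well plates and dosed by pin tool the next day, with either a single drug or a fixed anchor-drug dose combined with five library-drug doses (not always all listed) spaced in √10 steps. Five days later, one step fixed the cells and stained their nuclei (final 0.05% Triton X-100, 1% formaldehyde, 1 ug/ml Hoechst), and nuclei were counted on 4× images. Relative viability is the nuclei count in treated wells divided by the count in vehicle wells, and each value is the median of duplicate plates.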

RAF265 + Dasatinib = compound: Cn1c(Nc2ccc(C(F)(F)F)cc2)nc2cc(Oc3ccnc(-c4ncc(C(F)(F)F)[nH]4)c3)ccc21 [RAF265] + Cc1nc(Nc2ncc(C(=O)Nc3c(C)cccc3Cl)s2)cc(N2CCN(CCO)CC2)n1 [Dasatinib] (partner 0.075 µM)
In short: as §1

IPA-3 + Pictilisib = compound: C1=CC=C2C(=C1)C=CC(=C2SSC3=C(C=CC4=CC=CC=C43)O)O [IPA-3] + CS(=O)(=O)N1CCN(Cc2cc3nc(-c4cccc5[nH]ncc45)nc(N4CCOCC4)c3s2)CC1 [Pictilisib] (partner 1 µM)
In short: as §1

RAF265 + Alpelisib = compound: Cn1c(Nc2ccc(C(F)(F)F)cc2)nc2cc(Oc3ccnc(-c4ncc(C(F)(F)F)[nH]4)c3)ccc21 [RAF265] + Cc1nc(NC(=O)N2CCC[C@H]2C(N)=O)sc1-c1ccnc(C(C)(C)C(F)(F)F)c1 [Alpelisib] (partner 2 µM)
In short: as §1

Cell Line: UMC-11
- relative viability (IPA-3 + OSI-027; first compound 0.2 µM): 0.5
- relative viability (IPA-3 + OSI-027; first compound 0.6325 µM): 0.49
- relative viability (IPA-3 + OSI-027; first compound 2 µM): 0.426
- relative viability (IPA-3 + OSI-027; first compound 6.325 µM): 0.458
- relative viability (IPA-3 + OSI-027; first compound 20 µM): 0.502
- relative viability (RAF265 + Dasatinib; first compound 0.01 µM): 0.443
- relative viability (RAF265 + Dasatinib; first compound 0.03162 µM): 0.442
- relative viability (RAF265 + Dasatinib; first compound 0.1 µM): 0.457
- relative viability (RAF265 + Dasatinib; first compound 0.3162 µM): 0.444
- relative viability (RAF265 + Dasatinib; first compound 1 µM): 0.4
- relative viability (IPA-3 + Pictilisib; first compound 0.2 µM): 0.982
- relative viability (IPA-3 + Pictilisib; first compound 0.6325 µM): 0.815
- relative viability (IPA-3 + Pictilisib; first compound 2 µM): 0.776
- relative viability (IPA-3 + Pictilisib; first compound 6.325 µM): 0.665
- relative viability (IPA-3 + Pictilisib; first compound 20 µM): 0.763
- relative viability (RAF265 + Alpelisib; first compound 0.01 µM): 0.972
- relative viability (RAF265 + Alpelisib; first compound 0.03162 µM): 0.981
- relative viability (RAF265 + Alpelisib; first compound 0.1 µM): 0.969
- relative viability (RAF265 + Alpelisib; first compound 0.3162 µM): 1.14
- relative viability (RAF265 + Alpelisib; first compound 1 µM): 0.937

Source: the supplement of paper PMC10307832
